In one assay the target is T1, HDAC1 (Homo sapiens, UniProt Q13547).
T1 construct: purchased Enzolifesciences BML-AK511
Description: HDAC enzyme activity inhibition (in vitro), HDAC1 Fluorimetric Drug Discovery Assay Kit. Type of assay: biochemical. As to conditions: samples at 100, 1000 and 10000 nM; 37° C. 60 minutes; fluorescence Ex 390, Em 460; read-out: HDAC1 IC50. In short, it runs like this: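 Each sample reacted with enzyme for 60 min at 37° C before a 30-min developer step at the same temperature. HDAC1 doses spanned 100 to 10000 nM. Fluorescent signal was read at Ex 390/Em 460.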

Another assay addresses T2, HDAC6 human recombinant (Homo sapiens, UniProt Q9UBN7).
T2 construct: purchased Calbiochem 382180
T2 sequence (Q9UBN7 1-1215): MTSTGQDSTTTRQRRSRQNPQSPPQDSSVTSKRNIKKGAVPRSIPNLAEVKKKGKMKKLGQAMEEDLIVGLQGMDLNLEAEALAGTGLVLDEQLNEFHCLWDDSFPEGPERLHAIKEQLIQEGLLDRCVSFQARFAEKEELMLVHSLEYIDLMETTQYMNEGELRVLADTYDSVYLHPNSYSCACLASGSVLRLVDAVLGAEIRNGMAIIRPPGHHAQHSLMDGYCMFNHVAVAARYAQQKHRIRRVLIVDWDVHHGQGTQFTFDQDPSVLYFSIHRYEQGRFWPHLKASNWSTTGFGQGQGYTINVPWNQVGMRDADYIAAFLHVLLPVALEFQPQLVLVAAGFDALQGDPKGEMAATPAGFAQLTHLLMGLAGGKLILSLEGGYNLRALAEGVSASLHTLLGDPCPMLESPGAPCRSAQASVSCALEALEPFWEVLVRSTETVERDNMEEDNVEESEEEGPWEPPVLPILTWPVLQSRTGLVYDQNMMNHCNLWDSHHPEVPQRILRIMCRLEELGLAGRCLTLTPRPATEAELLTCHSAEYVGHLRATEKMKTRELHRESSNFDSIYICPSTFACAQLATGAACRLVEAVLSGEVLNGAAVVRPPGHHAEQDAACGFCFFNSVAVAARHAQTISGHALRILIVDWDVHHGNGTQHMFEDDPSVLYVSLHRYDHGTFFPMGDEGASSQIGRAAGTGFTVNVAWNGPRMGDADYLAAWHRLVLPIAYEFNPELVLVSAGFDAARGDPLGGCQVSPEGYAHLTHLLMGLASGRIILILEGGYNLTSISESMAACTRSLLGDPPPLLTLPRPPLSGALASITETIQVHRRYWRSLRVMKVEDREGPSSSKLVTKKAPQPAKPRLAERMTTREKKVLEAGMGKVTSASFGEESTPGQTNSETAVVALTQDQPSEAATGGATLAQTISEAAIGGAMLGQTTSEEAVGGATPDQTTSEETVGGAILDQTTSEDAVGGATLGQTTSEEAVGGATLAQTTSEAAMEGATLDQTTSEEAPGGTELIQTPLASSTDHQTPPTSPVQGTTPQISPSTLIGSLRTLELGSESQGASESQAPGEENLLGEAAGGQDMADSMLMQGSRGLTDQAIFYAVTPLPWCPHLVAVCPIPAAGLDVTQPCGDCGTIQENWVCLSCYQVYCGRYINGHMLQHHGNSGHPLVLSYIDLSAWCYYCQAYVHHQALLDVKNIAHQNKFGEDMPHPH
Nature of the assay: HDAC enzyme activity inhibition (in vitro), HDAC6 assay. Type of assay: biochemical. As to conditions: samples at 0.1, 1, 10, 100 and 1000 nM; 37° C. 60 minutes; fluorescence Ex 390, Em 460; read-out: HDAC6 IC50. In short, it runs like this:
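Fluorescence (Ex 390, Em 460) read after a 37° C, 60 min enzyme reaction and a further 30 min developer step at 37° C. Uses recombinant human HDAC6; HDAC1 arm dosed at 100, 1000, 10000 nM.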

The structures appear in SMILES notation. pIC50: −log10 of the molar value.

T1 sequence (Q13547 whole entry): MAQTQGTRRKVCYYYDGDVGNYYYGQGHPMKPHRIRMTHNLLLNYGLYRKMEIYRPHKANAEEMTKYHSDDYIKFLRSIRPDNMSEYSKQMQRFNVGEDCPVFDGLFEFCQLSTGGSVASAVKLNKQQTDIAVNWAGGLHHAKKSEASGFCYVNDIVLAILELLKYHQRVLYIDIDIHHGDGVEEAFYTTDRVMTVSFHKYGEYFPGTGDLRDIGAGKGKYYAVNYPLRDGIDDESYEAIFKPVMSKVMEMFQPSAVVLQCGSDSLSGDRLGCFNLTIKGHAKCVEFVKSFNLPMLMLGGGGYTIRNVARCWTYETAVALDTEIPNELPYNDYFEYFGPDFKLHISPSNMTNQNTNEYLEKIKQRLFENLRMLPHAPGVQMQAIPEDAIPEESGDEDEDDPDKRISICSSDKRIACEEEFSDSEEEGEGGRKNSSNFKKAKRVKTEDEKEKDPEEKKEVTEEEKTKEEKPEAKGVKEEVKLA

With `O=C(N1CCOCC1)N1CCC(n2c(=O)n(Cc3ccc(-c4nnc(C(F)F)o4)cn3)c3cc(F)ccc32)CC1` [Compound 61, 3-((5-(5-(difluoromethyl)-1,3,4-oxadiazole-2-yl)pyridine-2-yl)methyl)-5-fluoro-1-(1-(morpholine-4-carbonyl)piperidine-4-yl)-1,3-dihydro-2H-benzo[d]imidazole-2-one], the pIC50 – broadly, the IC50 on a negative log10 scale, so that one unit is a factor of ten – is < 5.00 on HDAC1 and 7.49 on HDAC6 human recombinant.
As to `O=C(c1ccc(C(F)(F)F)cc1)N1CCC(n2c(=O)n(Cc3ccc(-c4nnc(C(F)F)o4)cn3)c3cc(F)ccc32)CC1` [Compound 62, 3-((5-(5-(difluoromethyl)-1,3,4-oxadiazole-2-yl)pyridine-2-yl)methyl)-5-fluoro-1-(1-(4-(trifluoromethyl)benzoyl)piperidine-4-yl)-1,3-dihydro-2H-benzo[d]imidazole-2-one], the results for the pIC50 at HDAC1 and on HDAC6 human recombinant were < 5.00 and 6.59, respectively.
Take `O=C(c1ccncc1)N1CCC(n2c(=O)n(Cc3ccc(-c4nnc(C(F)F)o4)cn3)c3cc(F)ccc32)CC1` [Compound 63, 3-((5-(5-(difluoromethyl)-1,3,4-oxadiazole-2-yl)pyridine-2-yl)methyl)-5-fluoro-1-(1-isonicotinoylpiperidine-4-yl)-1,3-dihydro-2H-benzo[d]imidazole-2-one]: the pIC50 on HDAC1 is < 5.00; on HDAC6 human recombinant, 7.24.
Consider `O=C(c1cncnc1)N1CCC(n2c(=O)n(Cc3ccc(-c4nnc(C(F)F)o4)cn3)c3cc(F)ccc32)CC1` [Compound 64, 3-((5-(5-(difluoromethyl)-1,3,4-oxadiazole-2-yl)pyridine-2-yl)methyl)-5-fluoro-1-(1-(pyrimidine-5-carbonyl)piperidine-4-yl)-1,3-dihydro-2H-benzo[d]imidazole-2-one], for which the pIC50 at HDAC1 is < 5.00; on HDAC6 human recombinant, 7.36.
For `Cc1oncc1C(=O)N1CCC(n2c(=O)n(Cc3ccc(-c4nnc(C(F)F)o4)cn3)c3cc(F)ccc32)CC1` [Compound 65, 3-((5-(5-(difluoromethyl)-1,3,4-oxadiazole-2-yl)pyridine-2-yl)methyl)-5-fluoro-1-(1-(5-methylisooxazole-4-carbonyl)piperidine-4-yl)-1,3-dihydro-2H-benzo[d]imidazole-2-one], the pIC50 is < 5.00 on HDAC1 and 7.08 on HDAC6 human recombinant.
The corresponding values for `Cc1ccc(C(=O)N2CCC(n3c(=O)n(Cc4ccc(-c5nnc(C(F)F)o5)cn4)c4cc(F)ccc43)CC2)o1` [Compound 66, 3-((5-(5-(difluoromethyl)-1,3,4-oxadiazole-2-yl)pyridine-2-yl)methyl)-5-fluoro-1-(1-(5-methylfuran-2-carbonyl)piperidine-4-yl)-1,3-dihydro-2H-benzo[d]imidazole-2-one] are < 5.00 and 7.14.
Regarding `COCCC(=O)N1CCC(n2c(=O)n(Cc3ccc(-c4nnc(C(F)F)o4)cn3)c3cc(F)ccc32)CC1` [Compound 67, 3-((5-(5-(difluoromethyl)-1,3,4-oxadiazole-2-yl)pyridine-2-yl)methyl)-5-fluoro-1-(1-(3-methoxypropanoyl)piperidine-4-yl)-1,3-dihydro-2H-benzo[d]imidazole-2-one], the figures for the pIC50 at HDAC1 and on HDAC6 human recombinant were < 5.00 and 7.39, respectively.
On to `COC(=O)N1CCC(n2c(=O)n(Cc3ccc(-c4nnc(C(F)F)o4)cn3)c3cc(F)ccc32)CC1` [Compound 68, Methyl 4-(3-((5-(5-(difluoromethyl)-1,3,4-oxadiazole-2-yl)pyridine-2-yl)methyl)-5-fluoro-2-oxo-2,3-dihydro-1H-benzo[d]imidazole-1-yl)piperidine-1-carboxylate], for which the pIC50 at HDAC1 was < 5.00; at HDAC6 human recombinant it was 7.47.
As for `CN1CCC(n2c(=O)n(Cc3ccc(-c4nnc(C(F)F)o4)cc3F)c3cc(F)ccc32)CC1` [Compound 69, 3-(4-(5-(difluoromethyl)-1,3,4-oxadiazole-2-yl)-2-fluorobenzyl)-5-fluoro-1-(1-methylpiperidine-4-yl)-1,3-dihydro-2H-benzo[d]imidazole-2-one], the pIC50 at HDAC1 is < 5.00; on HDAC6 human recombinant, 7.55.
